Data on one substance can be found in PMC5458078, “Global mapping of CARM1 substrates defines enzyme specificity and substrate recognition” (Nature Communications, 2017).

The test system of this experiment is 6xHis-tagged CARM1 EVH1 domain (CARM1 28-140). Nature of the experiment: FP assay with fluorescein-labelled BAF155 peptide and 6xHis-CARM1 28-140. Type of experiment: binding. The settings on record: fluorescein-labelled BAF155 peptide 5 nM; protein titrated; 50 mM HEPES pH 7.5, 150 mM NaCl, 0.005% NP-40, 0.5 mM EDTA; 2 h, room temperature; triplicates; ex 485/20 nm, em 528/20 nm. The protocol:
The DNA fragment encoding CARM1 residues 28–140 was cloned into pET21a expression vector (Novagen, Madison, WI). DNA construct was transformed into BL21(DE3)pLysS E. coli expression strain. Luria–Bertani media (1–2L) was seeded with 10 ml of overnight starter culture and grown at 37 °C until OD600 nm reached 0.6. Protein expression was then induced with the addition of 0.2 mM isopropyl β-D-1-thiogalactopranoside for 4 h at ambient temperature. Bacterial pellets were then lysed by sonication on ice in lysis buffer (50 mM Tris, pH 7.5, 150 mM NaCl, 0.05% NP-40, supplemented with 1 × protease inhibitor cocktail before use) with 70% amplitude, 30 s on, 30 s off, 10 cycles. […] Protein concentration was then determined using Bradford assay and protein purity was assessed by SDS–PAGE and Coomassie Blue staining.
Fluorescein-labelled BAF155 peptide (constant final concentration at 5 nM) was mixed with titrations of purified recombinant proteins or BSA control in binding buffer (50 mM HEPES, pH 7.5, 150 mM NaCl, 0.005% NP-40, 0.5 mM EDTA) and incubated in dark at room temperature for 2 h. […] Polarization measurements were then corrected for background contributions to the measured intensity by subtracting the parallel and perpendicular intensity readings, from the blank buffer-only wells, from the intensity readings for each data point. […]

Turning to “bovine serum albumin (BSA): bovine serum albumin control”, the Fluorescence polarization change entry is reported as “no change in signal”.
